{"source": "patent US5364861A", "about": "“Optical isomers of 7-[3-(1,1-dialkylmethyl-1-amino-1-pyrrolidinyl]-quinolones and naphthyridones as antibacterial agents” (Warner-Lambert Company, priority 1993, dated 1994)", "key": {"Ent. cloacae MA2646": {"system": "Ent. cloacae MA2646", "assay": "in vitro antibacterial activity, microtitration dilution (MIC), Ent. cloacae MA2646", "type": "cell-based", "details": "Enterobacter cloacae, read-out: minimum inhibiting concentration (MIC)", "source_text": "(§1) The in vitro antibacterial activity is obtained when tested by the microtitration dilution method as described in Heifetz, et al., Antimicr. Agents & Chemother. 1974;6:124, which is incorporated herein by reference.\n(§2) By use of the above methods, the following minimum inhibiting concentration values (MICs in μg/ml), PD50 's in mg/kg, no effect phototoxicity dose in mg/kg and the cytotoxicity IC50 in μg/mL were obtained for representative enantiomers of the invention and compounds of the prior art as shown in the table."}, "Pseud. aeruginosa UI-18 [1]": {"system": "Pseud. aeruginosa UI-18", "assay": "in vitro antibacterial activity, microtitration dilution (MIC), Pseud. aeruginosa UI-18", "type": "cell-based", "details": "Pseudomonas aeruginosa, UI18, read-out: minimum inhibiting concentration (MIC)", "source_text": "as §1, §2"}, "in vivo": {"assay": "in vivo", "set-up": "species or system mice", "details": "mouse, po", "protocol": "The phototoxicity data is obtained using depilated mice. Compound was administered orally each day for four successive days, followed each day by 3 hours of […] radiation. The mice were examined for any positive signs (redness, erythema) relative to control animals. The no effect dose and the 50% effect dose were determined. By use of the above methods, the following minimum inhibiting concentration values (MICs in μg/ml), PD50 's in mg/kg, no effect phototoxicity dose in mg/kg and the cytotoxicity IC50 in μg/mL were obtained for representative enantiomers of the invention and compounds of the prior art as shown in the table."}, "Strep. pyogenes C-203 [2]": {"system": "Strep. pyogenes C-203", "assay": "median protective dose in mice given lethal systemic infection, Strep. pyogenes", "type": "in vivo", "details": "Streptococcus pyogenes, C203, Strep. pyogenes, single dose at time of challenge, route not given, read-out: median protective dose (PD50)", "protocol": "(§3) The in vivo activity is obtained when the compounds are tested according to the procedure of Miller, et al (Proc. Soc. Exp. Biol. Med. 1944;57:261). The median protective dose (PD50) was determined in mice given lethal systemic infections. Single doses of compound were given at time of challenge.\nas §2\n(§4) The in vivo data as PD50 's are reported below the line of MICs for the same compound."}, "[3]": {"assay": "cytotoxicity, colony reduction of hamster V-79 cells", "type": "cell-based", "details": "3 hours treatment, colonies counted after 5 days, read-out: cytotoxicity IC50 (Cytotox)", "protocol": "The cytotoxicity data is obtained using hamster V-79 cells. The cells were suspended in tissue culture medium and grown overnight. Cells were treated with drug for 3 hours, washed free of drug and then replated, and the colonies counted after 5 days. The concentration of drug that reduced colonies by 50% relative to control was recorded.\nas §2"}, "Strep. faecalis MGH-2": {"system": "Strep. faecalis MGH-2", "assay": "in vitro antibacterial activity, microtitration dilution (MIC), Strep. faecalis MGH-2", "type": "cell-based", "details": "Enterococcus faecalis, MGH2, read-out: minimum inhibiting concentration (MIC)", "source_text": "as §1, §2"}, "Pseud. aeruginosa UI-18 [4]": {"system": "Pseud. aeruginosa UI-18", "assay": "median protective dose in mice given lethal systemic infection, Pseud. aeruginosa", "type": "in vivo", "details": "Pseudomonas aeruginosa, UI18, Pseud. aeruginosa, single dose at time of challenge, route not given, read-out: median protective dose (PD50)", "protocol": "as §3, §2, §4"}, "Strep. pneumoniae SV-1 [5]": {"system": "Strep. pneumoniae SV-1", "assay": "in vitro antibacterial activity, microtitration dilution (MIC), Strep. pneumoniae SV-1", "type": "cell-based", "details": "Streptococcus pneumoniae, SV1, read-out: minimum inhibiting concentration (MIC)", "source_text": "as §1, §2"}, "Strep. pyogenes C-203 [6]": {"system": "Strep. pyogenes C-203", "assay": "in vitro antibacterial activity, microtitration dilution (MIC), Strep. pyogenes C-203", "type": "cell-based", "details": "Streptococcus pyogenes, C203, read-out: minimum inhibiting concentration (MIC)", "source_text": "as §1, §2"}, "Staph. aureus UC-76": {"system": "Staph. aureus UC-76", "assay": "in vitro antibacterial activity, microtitration dilution (MIC), Staph. aureus UC-76", "type": "cell-based", "details": "Staphylococcus aureus, UC76, read-out: minimum inhibiting concentration (MIC)", "source_text": "as §1, §2"}, "Klebs. pneumoniae MGH-2": {"system": "Klebs. pneumoniae MGH-2", "assay": "in vitro antibacterial activity, microtitration dilution (MIC), Klebs. pneumoniae MGH-2", "type": "cell-based", "details": "Klebsiella pneumoniae, MGH2, read-out: minimum inhibiting concentration (MIC)", "source_text": "as §1, §2"}, "Strep. pneumoniae SV-1 [7]": {"system": "Strep. pneumoniae SV-1", "assay": "median protective dose in mice given lethal systemic infection, Strep. pneumoniae", "type": "in vivo", "details": "Streptococcus pneumoniae, SV1, Strep. pneumoniae, single dose at time of challenge, route not given, read-out: median protective dose (PD50)", "protocol": "as §3, §2, §4"}, "Esch. coli Vogel [8]": {"system": "Esch. coli Vogel", "assay": "median protective dose in mice given lethal systemic infection, Esch. coli", "type": "in vivo", "details": "Escherichia coli, single dose at time of challenge, route not given, read-out: median protective dose (PD50)", "protocol": "as §3, §2, §4"}, "Esch. coli Vogel [9]": {"system": "Esch. coli Vogel", "assay": "in vitro antibacterial activity, microtitration dilution (MIC), Esch. coli Vogel", "type": "cell-based", "details": "Escherichia coli, read-out: minimum inhibiting concentration (MIC)", "source_text": "as §1, §2"}, "Staph. aureus H 228": {"system": "Staph. aureus H 228", "assay": "in vitro antibacterial activity, microtitration dilution (MIC), Staph. aureus H 228", "type": "cell-based", "details": "Staphylococcus aureus, H228, read-out: minimum inhibiting concentration (MIC)", "source_text": "as §1, §2"}, "Prot. rettgeri M 1771": {"system": "Prot. rettgeri M 1771", "assay": "in vitro antibacterial activity, microtitration dilution (MIC), Prot. rettgeri M 1771", "type": "cell-based", "details": "Providencia rettgeri, M1771, read-out: minimum inhibiting concentration (MIC)", "source_text": "as §1, §2"}}, "note": "Where two headings read alike, the source gives them in different places."}
{"smiles": "CC(C)(N)[C@@H]1CCN(c2nc3c(cc2F)c(=O)c(C(=O)O)cn3C2CC2)C1", "note": "[Example 4]", "values": [{"measurement": "MIC", "setting": "Ent. cloacae MA2646", "value": 0.1, "unit": "µg/mL"}, {"measurement": "MIC", "setting": "Pseud. aeruginosa UI-18 [1]", "value": 1.6, "unit": "µg/mL"}, {"measurement": "NOAEL", "setting": "in vivo", "value": 30, "unit": "mg/kg"}, {"measurement": "ED50", "setting": "Strep. pyogenes C-203 [2]; first line below the MICs", "value": 4, "unit": "mg/kg"}, {"measurement": "ED50", "setting": "Strep. pyogenes C-203 [2]; second line below the MICs", "value": 1, "unit": "mg/kg"}, {"measurement": "CC50 at 3 h", "setting": "[3]", "value": 130, "unit": "µg/mL"}, {"measurement": "MIC", "setting": "Strep. faecalis MGH-2", "value": 0.05, "unit": "µg/mL"}, {"measurement": "ED50", "setting": "Pseud. aeruginosa UI-18 [4]; first line below the MICs", "value": 50, "unit": "mg/kg"}, {"measurement": "ED50", "setting": "Pseud. aeruginosa UI-18 [4]; second line below the MICs", "value": 22, "unit": "mg/kg"}, {"measurement": "MIC", "setting": "Strep. pneumoniae SV-1 [5]", "value": 0.006, "unit": "µg/mL"}, {"measurement": "MIC", "setting": "Strep. pyogenes C-203 [6]", "value": 0.013, "unit": "µg/mL"}, {"measurement": "MIC", "setting": "Staph. aureus UC-76", "value": 0.003, "unit": "µg/mL"}, {"measurement": "MIC", "setting": "Klebs. pneumoniae MGH-2", "value": 0.2, "unit": "µg/mL"}, {"measurement": "ED50", "setting": "Strep. pneumoniae SV-1 [7]; first line below the MICs", "value": 5, "unit": "mg/kg"}, {"measurement": "ED50", "setting": "Strep. pneumoniae SV-1 [7]; second line below the MICs", "value": 2, "unit": "mg/kg"}, {"measurement": "ED50", "setting": "Esch. coli Vogel [8]; first line below the MICs", "value": 5, "unit": "mg/kg"}, {"measurement": "ED50", "setting": "Esch. coli Vogel [8]; second line below the MICs", "value": 1, "unit": "mg/kg"}, {"measurement": "MIC", "setting": "Esch. coli Vogel [9]", "value": 0.05, "unit": "µg/mL"}, {"measurement": "MIC", "setting": "Staph. aureus H 228", "value": 0.05, "unit": "µg/mL"}, {"measurement": "MIC", "setting": "Prot. rettgeri M 1771", "value": 0.4, "unit": "µg/mL"}]}
